# According to ChEMBL document CHEMBL3045426, “Synthesis, Antiviral and Antibacterial Activities of Isatin Mannich Bases” (Med Chem Res, 2005):
# Tests used:
# [1] = Selectivity index, ratio of CC50 for human MT4 cells to EC50 for HIV1 3B infected in MT4 cells; type: toxicity, cell-based; conditions: read-out: Ratio CC50/EC50
# Vibrio cholerae [2] = assay: Antimicrobial activity against Vibrio cholerae 01 after 18 to 20 hr by agar dilution method; type: functional; conditions: 1
# Priestia megaterium = assay: Antimicrobial activity against Bacillus megaterium after 18 to 20 hr by agar dilution method; type: functional
# Enterobacter = assay: Antimicrobial activity against Enterobacter after 18 to 20 hr by agar dilution method; type: functional
# Citrobacter freundii = assay: Antimicrobial activity against Citrobacter freundii after 18 to 20 hr by agar dilution method; type: functional
# Salmonella enteritidis = assay: Antimicrobial activity against Salmonella enterica subsp. enterica serovar Enteritidis after 18 to 20 hr by agar dilution method; type: functional
# Salmonella typhimurium = assay: Antimicrobial activity against Salmonella enterica subsp. enterica serovar Typhimurium after 18 to 20 hr by agar dilution method; type: functional
# Proteus mirabilis = assay: Antimicrobial activity against Proteus mirabilis after 18 to 20 hr by agar dilution method; type: functional
# Proteus vulgaris = assay: Antimicrobial activity against Proteus vulgaris after 18 to 20 hr by agar dilution method; type: functional
# Edwardsiella tarda = assay: Antimicrobial activity against Edwardsiella tarda after 18 to 20 hr by agar dilution method; type: functional
# Escherichia coli [3] = assay: Antimicrobial activity against Escherichia coli NCTC 10418 after 18 to 20 hr by agar dilution method; type: functional
# Salmonella typhi = assay: Antimicrobial activity against Salmonella enterica subsp. enterica serovar Typhi after 18 to 20 hr by agar dilution method; type: functional
# Salmonella paratyphi = assay: Antimicrobial activity against Salmonella enterica subsp. enterica serovar Paratyphi A after 18 to 20 hr by agar dilution method; type: functional
# Vibrio parahaemolyticus = assay: Antimicrobial activity against Vibrio parahaemolyticus after 18 to 20 hr by agar dilution method; type: functional
# Vibrio cholerae [4] = assay: Antimicrobial activity against Vibrio cholerae 0139 after 18 to 20 hr by agar dilution method; type: functional; conditions: 139
# Vibrio fluvialis = assay: Antimicrobial activity against Vibrio fluvialis after 18 to 20 hr by agar dilution method; type: functional
# Vibrio mimicus = assay: Antimicrobial activity against Vibrio mimicus after 18 to 20 hr by agar dilution method; type: functional
# Pseudomonas aeruginosa = assay: Antimicrobial activity against Pseudomonas aeruginosa after 18 to 20 hr by agar dilution method; type: functional
# Staphylococcus aureus = assay: Antimicrobial activity against Staphylococcus aureus after 18 to 20 hr by agar dilution method; type: functional
# Morganella morganii = assay: Antimicrobial activity against Morganella morganii after 18 to 20 hr by agar dilution method; type: functional
# Shigella boydii = assay: Antimicrobial activity against Shigella boydii after 18 to 20 hr by agar dilution method; type: functional
# Plesiomonas = assay: Antimicrobial activity against Plesiomonas after 18 to 20 hr by agar dilution method; type: functional
# Shigella sonnei = assay: Antimicrobial activity against Shigella sonnei after 18 to 20 hr by agar dilution method; type: functional
# Klebsiella pneumoniae [5] = assay: Antimicrobial activity against Klebsiella pneumoniae after 18 to 20 hr by agar dilution method; type: functional
# Klebsiella pneumoniae [6] = assay: Antimicrobial activity against Klebsiella pneumoniae subsp. ozaenae after 18 to 20 hr by agar dilution method; type: functional
# [7] = system: Mycobacterium tuberculosis; assay: Antimycobacterial activity against Mycobacterium tuberculosis H37Rv ATCC 27294 at 6.25 ug/ml by MABA; type: functional
# [8] = Cytotoxicity against Homo sapiens (human) HuH7 cells assessed as cell growth at 50 ug/ml after 3 days by Neutral red assay; type: cell-based, Huh-7; conditions: read-out: Activity
# [9] = Cytotoxicity against Homo sapiens (human) CEM cells after 5 days by MTT assay; type: cell-based; conditions: CEM cells (CCRF-CEM)
# [10] = system: Human immunodeficiency virus 1; assay: Antiviral activity against Human immunodeficiency virus 1 IIIB infected CEM cells assessed as protection against viral infection after 6 days by XTT assay; type: functional, CCRF-CEM; set-up: concentration or dose not given beside the values
# [11] = system: Human immunodeficiency virus 1; assay: Antiviral activity against Human immunodeficiency virus 1 IIIB infected CEM cells assessed as inhibition of virus-induced cytopathicity after 6 days by XTT assay; type: functional, organism-based; conditions: CCRF-CEM, 144 h
# [12] = Cytotoxicity against Homo sapiens (human) MT4 cells after 5 days by MTT assay; type: cell-based
# [13] = system: Human immunodeficiency virus 1; assay: Antiviral activity against Human immunodeficiency virus 1 IIIB infected MT4 cells assessed as inhibition of virus-induced cytopathicity after 5 days by MTT assay; type: functional, organism-based; conditions: MT4, 120 h
# Hepatitis C virus = assay: Antiviral activity against Hepatitis C virus BM4-5 infected in Huh7 cells assessed as inhibition of viral RNA replication by phosphor screening method; type: functional, Hepacivirus hominis, Huh-7
# [14] = system: Human immunodeficiency virus 1; assay: Antiviral activity against Human immunodeficiency virus 1 IIIB infected MT4 cells assessed as protection against viral infection after 5 days by MTT assay; type: functional; set-up: concentration or dose not given beside the values
# Escherichia coli [15] = assay: Antibacterial activity against Escherichia coli NCTC 10418 infected in po dosed CF mouse compound administered 1 hr prior and 4 hr post infection; type: functional; conditions: NCTC 10418, po
SMILES,MIC (Vibrio cholerae [2]) [µg/mL],MIC (Priestia megaterium) [µg/mL],MIC (Enterobacter) [µg/mL],MIC (Citrobacter freundii) [µg/mL],MIC (Salmonella enteritidis) [µg/mL],MIC (Salmonella typhimurium) [µg/mL],MIC (Proteus mirabilis) [µg/mL],MIC (Proteus vulgaris) [µg/mL],MIC (Edwardsiella tarda) [µg/mL],MIC (Salmonella typhi) [µg/mL],MIC (Salmonella paratyphi) [µg/mL],MIC (Vibrio parahaemolyticus) [µg/mL],MIC (Vibrio cholerae [4]) [µg/mL],MIC (Vibrio fluvialis) [µg/mL],MIC (Vibrio mimicus) [µg/mL],MIC (Pseudomonas aeruginosa) [µg/mL],MIC (Staphylococcus aureus) [µg/mL],MIC (Morganella morganii) [µg/mL],MIC (Shigella boydii) [µg/mL],MIC (Plesiomonas) [µg/mL],further results
CCN(CC)CN1C(=O)/C(=N\c2ncc(Cc3cc(OC)c(OC)c(OC)c3)c(N)n2)c2cc(Cl)ccc21,1.22,1250,312,312,625,312,312,625,1250,1250,78.1,39.1,312,625,9.76,1250,625,625,39.1,19.5,"selectivity ratio [1]: 3; MIC (Escherichia coli [3]): 1250 µg/mL; MIC (Shigella sonnei): 1250 µg/mL; MIC (Klebsiella pneumoniae [5]): 1250 µg/mL; MIC (Klebsiella pneumoniae [6]): 625 µg/mL; inhibition at 6.25 µg/mL [7]: 53%; viability at 72 h, 50 ug/ml [8]: 72%; CC50 at 120 h [9]: 98.4 µg/mL; Activity [10]: 20.69%; EC50 [11]: > 98.4 µg/mL; CC50 at 120 h [12]: 79.1 µg/mL; EC50 [13]: 23.6 µg/mL; inhibition (INH) (Hepatitis C virus): 67%; Activity [14]: 64.1%"
COc1cc(Cc2cnc(/N=C3\C(=O)N(CN4CCN(c5cccc(Cl)c5)CC4)c4ccc(Cl)cc43)nc2N)cc(OC)c1OC,0.61,1250,625,1250,1250,625,1250,1250,1250,1250,1250,1.22,625,625,9.76,156,1250,1250,19.5,19.5,"MIC (Escherichia coli [3]): 1250 µg/mL; MIC (Shigella sonnei): 1250 µg/mL; MIC (Klebsiella pneumoniae [5]): 1250 µg/mL; MIC (Klebsiella pneumoniae [6]): 1250 µg/mL; inhibition at 6.25 µg/mL [7]: 44%; viability at 72 h, 50 ug/ml [8]: 67%; CC50 at 120 h [9]: 34.4 µg/mL; Activity [10]: 23%; EC50 [11]: > 34.4 µg/mL; CC50 at 120 h [12]: 39.2 µg/mL; EC50 [13]: > 39.2 µg/mL; inhibition (INH) (Hepatitis C virus): 96%; Activity [14]: 20.9%"
O=C(O)c1cn(C2CC2)c2cc(N3CCNCC3)c(F)cc2c1=O [CIPROFLOXACIN],0.04,0.04,0.04,0.04,0.04,0.04,0.04,0.04,0.04,0.04,0.04,0.04,0.04,0.04,0.04,0.15,0.04,0.04,0.04,0.04,ED50 (Escherichia coli [15]): 1.25 mg/kg; MIC (Shigella sonnei): 0.04 µg/mL; MIC (Klebsiella pneumoniae [5]): 0.04 µg/mL; MIC (Klebsiella pneumoniae [6]): 0.15 µg/mL
CCn1cc(C(=O)O)c(=O)c2cc(F)c(N3CCNC(C)C3)c(F)c21 (stereo unspecified) [LOMEFLOXACIN],0.02,19.5,19.5,19.5,19.5,4.88,2.44,0.61,4.88,9.77,0.61,39.1,2.44,1.22,1.22,4.88,0.61,1.22,9.77,1.22,ED50 (Escherichia coli [15]): 1.87 mg/kg; MIC (Escherichia coli [3]): 0.61 µg/mL; MIC (Shigella sonnei): 39.1 µg/mL; MIC (Klebsiella pneumoniae [5]): 2.44 µg/mL; MIC (Klebsiella pneumoniae [6]): 1.22 µg/mL
